Columns and labels:
[1] = test system: P. fluorescens SBW25 expressing an ilux operon under control of the saxA promoter; format: cell-based, Pseudomonas fluorescens SBW25; conditions: for responsiveness of the biosensor to the compound: FIG. 4
Experimental: (§1) For the basic microplate assay, the reporter biosensor was cultivated overnight in LB media with 50 μg/mL carbenicillin and 15 μg/mL gentamicin. The 200 μL assay was performed in opaque 96-well microtiter plates by adding ITC sample to the reporter cells at a final concentration of 0.05 OD600 in LB medium. All assay plates included cell-only controls (no ITC sample). Luminescence was measured in either a microplate spectrophotometer (Biotek Synergy HT) or a designated luminometer (Molecular Devices Spectramax L) for a 20-hour period in 15-minute intervals with ˜500 RPM shaking. Data were collected using auto-scaled gain or photon counting to increase signal detection. Modifications to the assay for the luxCDABE-based biosensor included a lower bacterial OD600 of 0.005, incubation at 31° C., and measurement every 30 min.
To increase the luminescent signal, the luxCDABE operon of the pHT #3 plasmid was replaced with the enhanced ilux operon that has an additional open reading frame encoding flavin mononucleotide (FMN) reductase and other optimizations (Gregor et al, Proc. Natl. Acad. Sci., (2018) 115(3): 962-967). All other components remained the same as the precursor, and this plasmid was assembled using the Gibson Assembly method (Gibson et al, Nature Meth., (2009) 6(5):343-347). The resulting plasmid, named pHT #9, was integrated into the P. fluorescens SBW25 genome in the same manner as pHT #3.
Plant extracts were prepared from seeds germinated in small petri dishes containing 0.5×Murashige and Skoog Medium and 0.3% agar for up to 4-days under artificial lighting. Germinated seeds and/or seedlings were transferred to 2-mL screwcap tubes containing steel beads. Water was added at a 1:2 ratio of plant weight to water volume. The tissue was macerated and pelleted by centrifugation. Supernatants were diluted prior to use in the basic microplate protocol.
To analyze the ability of the biosensor to detect ITCs in plant residues, seed meal was incubated on a rotating shaker at room temperature for 24 hrs with a 1:10 seed meal:water ratio (by mass) in 2.0 mL microcentrifuge tubes. Centrifuging and assaying of supernatant were conducted as described above for seedlings. Two seed meal types were tested—Sinapis alba (white mustard) and Brassica juncea (Indian mustard)—both of which are used in commercial biofumigation.
Biofumigated soil was collected from a field study in Hermiston, Oregon. The soils were managed in a 3-yr rotation with a Brassica cover crop mix (B. juncea Caliente 199 and Caliente Rojo; allyl ITC). The Brassica cover crop was tilled into the soil the day prior to sampling and the soils were stored frozen until analysis. […] Frozen soils were thawed and subsamples were homogenized (1600 MiniG homogenizer, 1500 RPM, 7 min), and rotated at room temperature for 45 min to allow time for glucosinolate hydrolysis. The sample was centrifuged for 5 min at 4,000×g and 100 μL extract was used in the basic microplate assay.
For analysis of seed meal amended soil, B. napus and S. alba seed meals were each added to a moist silt loam soils at 0.3% and 3% weight/dry weight. The soil/seed meals were mixed, transferred to small zippered bags and stored in gas-impermeable bags at room temperature. Soil amended with wheat straw and unamended soil were included as ITC-free controls.

[2] = test system: P. fluorescens SBW25 expressing the luxCDABE operon under control of the saxA promoter
Excerpt: The plasmid vector pUC18T-Tn7T-lux-Gm (Damron et al., Appl. Environ. Microbiol. (2013) 79(13): 4149-4153), which contains Tn7 sites for integration into the P. fluorescens genome, a luxCDABE operon responsible for bioluminescence, and a gentamicin resistance marker. This plasmid also contained a pl promoter, an unregulated promoter upstream of the luxCDABE operon, which was removed and replaced with the desired promoter.
The saxA promoter was PCR amplified from Pseudomonas cannabina and cloned upstream of the luxCDABE gene operon. […] The resulting plasmid containing the luxCDABE operon under control of the saxA promoter was termed pHT #3. This plasmid was transformed into P. fluorescens SBW25, via electroporation and selected for gentamicin resistance.
as §1

[3] = aqueous solutions, pH 6; cited from earlier work

## CNC(=S)S [Metam-sodium]
[1]
  responsiveness of the biosensor to the compound: responsive

## N#C[S-].[K+] [potassium thiocyanate]
[1]
  responsiveness of the biosensor to the compound: did not respond

## C[S+]([O-])CCCCN=C=S (centres unmarked) [sulforaphane]
[2]; 0, 25, 50, 75, 100 μM
  response of luminescence to the amount of ITC: dose dependent response
[2]; 100 μM of ITC
  area under the curve (AUC) value of luminescence: 1.5×10^7
  peak luminescence: approximately 700 relative light units (RLUs)
[2]; regardless of the concentration, 0-100 μM
  time of peak luminescence after inoculation: 8 to 9 h
[1]
  time of initial peak luminescence: 4 to 4.5 h
  responsiveness of the biosensor to the compound: responsive
[1]; 0, 5, 10, 25, 50, 75, 100 μM
  response of luminescence to the amount of ITC: dose-dependent response
[1]; 100 μM dose
  increase in AUC compared to the luxCDABE biosensor: 2 fold
  increase in the maximum RLU compared to the luxCDABE biosensor: 7.7 fold
[1]; low-dose range 0-20 μM
  concentrations detected (limits of detection): 1 to 2 µM

## Oc1ccc(CN=C=S)cc1 [4-hydroxybenzyl ITC]
[1]
  responsiveness of the biosensor to the compound: did not respond
[3]
  half-life: 6 min
